The supplement of paper PMC11061612

Assays:
Capivasertib = compound: C1CN(CCC1(C(=O)N[C@@H](CCO)C2=CC=C(C=C2)Cl)N)C3=NC=NC4=C3C=CN4 [Capivasertib]; conditions: max 10 µM
Outline: (§1)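 Cancer cell lines were dosed for 72 hours (final DMSO typically 0.2%) after 24 hours at 37°C and 5% CO2 in 1536-well plates containing 7.5 μl DMEM/F12 or RPMI with 10% FBS. Viability came from CellTiter-Glo 2.0 luminescence, scaled between blank-well and DMSO-well means, and dose responses were fitted to a two-parameter logistic curve with a non-linear mixed effects model. The single-agent IC50 was obtained from this fit.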

AZD1775 = compound: C=CCn1c(=O)c2cnc(Nc3ccc(N4CCN(C)CC4)cc3)nc2n1-c1cccc(C(C)(C)O)n1 [AZD1775]; conditions: max 3 µM
Outline: as §1

Trametinib = compound: CC(=O)Nc1cccc(-n2c(=O)n(C3CC3)c(=O)c3c(Nc4ccc(I)cc4F)n(C)c(=O)c(C)c32)c1 [Trametinib]; conditions: max 1 µM
Outline: as §1

Palbociclib = compound: CC(=O)c1c(C)c2cnc(Nc3ccc(N4CCNCC4)cn3)nc2n(C2CCCC2)c1=O [Palbociclib]; conditions: max 10 µM
Outline: as §1

AZD1390 = compound: CC(C)n1c(=O)n(C)c2cnc3cc(F)c(-c4ccc(OCCCN5CCCCC5)nc4)cc3c21 [AZD1390]; conditions: max 0.3 µM
Outline: as §1

Venetoclax = compound: CC1(C)CCC(CN2CCN(c3ccc(C(=O)NS(=O)(=O)c4ccc(NCC5CCOCC5)c([N+](=O)[O-])c4)c(Oc4cnc5[nH]ccc5c4)c3)CC2)=C(c2ccc(Cl)cc2)C1 [Venetoclax]; conditions: max 1 µM
Outline: as §1

Dasatinib = compound: CC1=C(C(=CC=C1)Cl)NC(=O)C2=CN=C(S2)NC3=CC(=NC(=N3)C)N4CCN(CC4)CCO [Dasatinib]; conditions: max 2 µM
Outline: as §1

SG3199 = compound: CC1=CN2[C@@H](C1)C=NC3=CC(=C(C=C3C2=O)OC)OCCCCCOC4=C(C=C5C(=C4)N=C[C@@H]6CC(=CN6C5=O)C)OC [SG3199]; conditions: max 0.001 µM
Outline: as §1

AZD2811 = compound: CCN(CCO)CCCOc1ccc2c(Nc3cc(CC(=O)Nc4cccc(F)c4)[nH]n3)ncnc2c1 [AZD2811]; conditions: max 1 µM
Outline: as §1

SN-38 = compound: CCc1c2c(nc3ccc(O)cc13)-c1cc3c(c(=O)n1C2)COC(=O)[C@]3(O)CC [SN-38]; conditions: max 0.3 µM
Outline: as §1

AZD0156 = compound: CN(C)CCCOc1ccc(-c2ccc3ncc4c(c3c2)n(C2CCOCC2)c(=O)n4C)cn1 [AZD0156]; conditions: max 3 µM
Outline: as §1

AZD4320 = compound: CN(CC[C@H](CSC1=CC=CC=C1)NC2=C(C=C(C=C2)S(=O)(=O)NC(=O)C3=CC=C(C=C3)N4CCC(CC4)[C@H](C5=CC=CC=C5C6=CC=C(C=C6)Cl)O)S(=O)(=O)C(F)(F)F)CCO [AZD4320]; conditions: max 1 µM
Outline: as §1

Alisertib = compound: COc1cc(Nc2ncc3c(n2)-c2ccc(Cl)cc2C(c2c(F)cccc2OC)=NC3)ccc1C(=O)O [Alisertib]; conditions: max 10 µM
Outline: as §1

Gefitinib = compound: COc1cc2ncnc(Nc3ccc(F)c(Cl)c3)c2cc1OCCCN1CCOCC1 [Gefitinib]; conditions: max 10 µM
Outline: as §1

Prexasertib = compound: COc1cccc(OCCCN)c1-c1cc(Nc2cnc(C#N)cn2)n[nH]1 [Prexasertib]; conditions: max 1 µM
Outline: as §1

Doxorubicin = compound: COc1cccc2c1C(=O)c1c(O)c3c(c(O)c1C2=O)C[C@@](O)(C(=O)CO)C[C@@H]3O[C@H]1C[C@H](N)[C@H](O)[C@H](C)O1 [Doxorubicin]; conditions: max 1 µM
Outline: as §1

AZD5153 = compound: COc1nnc2ccc(N3CCC(c4ccc(OCCN5CCN(C)C(=O)[C@H]5C)cc4)CC3)nn12 [AZD5153]; conditions: max 1 µM
Outline: as §1

Lapatinib = compound: CS(=O)(=O)CCNCc1ccc(-c2ccc3ncnc(Nc4ccc(OCc5cccc(F)c5)c(Cl)c4)c3c2)o1 [Lapatinib]; conditions: max 10 µM
Outline: as §1

AZD8186 = compound: C[C@@H](Nc1cc(F)cc(F)c1)c1cc(C(=O)N(C)C)cc2c(=O)cc(N3CCOCC3)oc12 [AZD8186]; conditions: max 3 µM
Outline: as §1

Crizotinib = compound: C[C@@H](Oc1cc(-c2cnn(C3CCNCC3)c2)cnc1N)c1c(Cl)ccc(F)c1Cl [Crizotinib]; conditions: max 10 µM
Outline: as §1

Savolitinib = compound: C[C@@H](c1ccc2nccn2c1)n1nnc2ncc(-c3cnn(C)c3)nc21 [Savolitinib]; conditions: max 1 µM
Outline: as §1

AZD6738 = compound: C[C@@H]1COCCN1C2=NC(=NC(=C2)C3(CC3)[S@](=N)(=O)C)C4=C5C=CNC5=NC=C4 [AZD6738]; conditions: max 10 µM
Outline: as §1

AZD5991 = compound: Cc1c2c(nn1C)CSCc1cc(n(C)n1)CSc1cc(c3ccccc3c1)OCCCc1c(C(=O)O)n(C)c3c-2c(Cl)ccc13 [AZD5991]; conditions: max 1 µM
Outline: as §1

AZD7648 = compound: Cc1cc2ncnn2cc1Nc1ncc2c(n1)n(C1CCOCC1)c(=O)n2C [AZD7648]; conditions: max 10 µM
Outline: as §1

Taselisib = compound: Cc1nc(-c2cn3c(n2)-c2ccc(-c4cnn(C(C)(C)C(N)=O)c4)cc2OCC3)n(C(C)C)n1 [Taselisib]; conditions: max 10 µM
Outline: as §1

Selumetinib = compound: Cn1cnc2c(F)c(Nc3ccc(Br)cc3Cl)c(C(=O)NOCCO)cc21 [Selumetinib]; conditions: max 10 µM
Outline: as §1

MK-2206 = compound: NC1(c2ccc(-c3nc4ccn5c(=O)[nH]nc5c4cc3-c3ccccc3)cc2)CCC1 [MK-2206]; conditions: max 10 µM
Outline: as §1

Olaparib = compound: O=C(c1cc(Cc2n[nH]c(=O)c3ccccc23)ccc1F)N1CCN(C(=O)C2CC2)CC1 [Olaparib]; conditions: max 10 µM
Outline: as §1

Cell Line | IC50, cell viability 72 h (Capivasertib) [µM] | IC50, cell viability 72 h (AZD1775) [nM] | IC50, cell viability 72 h (Trametinib) [nM] | IC50, cell viability 72 h (Palbociclib) [µM] | IC50, cell viability 72 h (AZD1390) [nM] | IC50, cell viability 72 h (Venetoclax) [nM] | IC50, cell viability 72 h (Dasatinib) [nM] | IC50, cell viability 72 h (SG3199) [nM] | IC50, cell viability 72 h (AZD2811) [nM] | IC50, cell viability 72 h (SN-38) [nM] | IC50, cell viability 72 h (AZD0156) [nM] | IC50, cell viability 72 h (AZD4320) [nM] | IC50, cell viability 72 h (Alisertib) [µM] | IC50, cell viability 72 h (Gefitinib) [µM] | IC50, cell viability 72 h (Prexasertib) [nM] | IC50, cell viability 72 h (Doxorubicin) [nM] | IC50, cell viability 72 h (AZD5153) [nM] | IC50, cell viability 72 h (Lapatinib) [µM] | IC50, cell viability 72 h (AZD8186) [nM] | IC50, cell viability 72 h (Crizotinib) [µM] | IC50, cell viability 72 h (Savolitinib) [nM] | IC50, cell viability 72 h (AZD6738) [µM] | IC50, cell viability 72 h (AZD5991) [nM] | IC50, cell viability 72 h (AZD7648) [µM] | IC50, cell viability 72 h (Taselisib) [nM] | IC50, cell viability 72 h (Selumetinib) [µM] | IC50, cell viability 72 h (MK-2206) [µM] | IC50, cell viability 72 h (Olaparib) [µM]
RERF-GC-1B (Gastric Carcinoma) | > 10 | 401 | 462 | > 10 | > 300 | > 1000 | 28.2 | > 1 | > 1000 | 60.9 | > 3000 | > 1000 | 3.28 | > 10 | 717 | 525 | 587 | > 10 | > 3000 | 7.14 | > 1000 | > 10 | 159 | > 10 | 1650 | > 10 | > 10 | > 10
RERF-LC-Sq1 (Squamous Cell Lung Carcinoma) | 1.6 | 681 | 179 | 6.6 | > 300 | > 1000 | > 2000 | > 1 | > 1000 | 167 | > 3000 | > 1000 | > 10 | 3.12 | 36.6 | 1000 | 768 | 2.64 | > 3000 | > 10 | > 1000 | 4.11 | > 1000 | > 10 | 427 | > 10 | – | > 10
SF268 (Low Grade Glioma) | > 10 | > 3000 | > 1000 | > 10 | > 300 | > 1000 | > 2000 | > 1 | > 1000 | 23.5 | > 3000 | > 1000 | 7.28 | > 10 | 643 | > 1000 | > 1000 | > 10 | > 3000 | > 10 | > 1000 | > 10 | > 1000 | > 10 | > 10000 | > 10 | – | > 10
SU-DHL-10 (B-Cell Non-Hodgkin's Lymphoma) | 0.505 | 586 | > 1000 | 0.435 | > 300 | > 1000 | 62.8 | > 1 | 29.2 | 13 | > 3000 | > 1000 | 0.684 | 7.02 | 27.2 | 442 | 9.5 | 4.97 | 1080 | 2.48 | > 1000 | 2.62 | 25.5 | > 10 | 1340 | > 10 | – | > 10
WM278 (Melanoma) | > 10 | > 3000 | 85.8 | > 10 | > 300 | > 1000 | > 2000 | > 1 | > 1000 | 200 | > 3000 | > 1000 | > 10 | > 10 | 413 | > 1000 | > 1000 | > 10 | > 3000 | > 10 | > 1000 | > 10 | > 1000 | > 10 | > 10000 | 3.57 | – | > 10
WM793B (Melanoma) | > 10 | 1930 | 175 | > 10 | > 300 | > 1000 | > 2000 | > 1 | > 1000 | 22.8 | > 3000 | > 1000 | > 10 | > 10 | 27.8 | 471 | 493 | > 10 | > 3000 | > 10 | > 1000 | 3.1 | > 1000 | > 10 | 2800 | 7.02 | – | > 10
